From patent publication US20220152144A1, “FOOD ADDITIVE INCLUDING MANNAN OLIGOSACCHARIDES TO ENHANCE ANIMAL PERFORMANCE AND METHOD OF USING THE SAME” (Vitech Bio-Chem Corporation, priority 2020, published 2022)

Columns and labels:
E. coli = experiment: Bacterial counts in cecal samples of broiler chicks: E. coli; format: in vivo; details: 21 days, dose 45 ppm
Procedure: (§1) The trial was conducted for 42 days. Body weight gain, feed intake, and FCR was measured at 14, 28, and 42 days. Cecal levels of E. coli, Salmonella, and lactobacillus were evaluated at 21 days.

[1] = Growth performance of broiler chicks fed supplemented diets (Example 1); format: in vivo, broiler chicks (Cobb500); details: dose 45 ppm
Procedure: Materials and Methods. Broiler chicks: A total of 960 1-day old broiler chicks (Name of breed: Cobb500™) (8 trt×6 rep×20 birds/pen) were randomly allocated to 8 treatment groups. Treatment groups: Treatment 1 was a corn/soybean meal diet (PC: 45 ppm avilamycin); Treatment 2 was a PC+50 g/T Fish hydrolysate+MOS (80:20 ratio); Treatment 3 was a PC+100 g/T Fish hydrolysate+MOS (80:20); and treatment 4 was PC+200 g/T Fish hydrolysate+MOS (80:20).
as §1
Measurements: Individual broiler weights and feed intake was collected in order to calculate body weight and body weight gain, feed intake, and gain-to-feed ratio by phase.
One-way ANOVA and Duncan's multiple range test was used to separate the means. There is no difference found between treatments. The overall mortality during the 42 days period is 3.65% and it is non-treatment specific.

Lactobacilli = experiment: Bacterial counts in cecal samples of broiler chicks: Lactobacilli; format: in vivo; details: 21 days, dose 45 ppm
Procedure: as §1

For `COC[C@H]1O[C@@H](OC2OC[C@@H]3O[C@]4(O[C@H]3[C@H]2OC(=O)C(C)C)O[C@H](C)[C@@](O)(C(C)=O)[C@@H]2OCO[C@H]24)[C@@H](OC)[C@@H](O)[C@@H]1O[C@@H]1O[C@H](C)[C@H](OC)[C@H](O[C@H]2C[C@@]3(C)OC4(C[C@@H](O)[C@H](O[C@H]5C[C@@H](O)[C@H](OC(=O)c6c(C)c(Cl)c(O)c(Cl)c6OC)[C@@H](C)O5)[C@@H](C)O4)O[C@@H]3[C@@H](C)O2)[C@H]1O` (stereo partly shown) [Avilamycin, avilamycin], the “E. coli Counts” value (E. coli) was 7.29a Log10 CFU/g, the “body weight (BW)” value ([1]; Day 0-14) was 442 g and the “body weight gain (BWG)” value ([1]; Day 0-14) was 402 g. For the same compound, the “feed intake (FI)” value ([1]; Day 0-14) was 583 g, the “food conversion ratio (FCR)” value ([1]; Day 0-14) was 1.453 and the “body weight (BW)” value ([1]; Day 0-28) was 1,550 g. The “body weight gain (BWG)” value ([1]; Day 0-28) was 1,510 g, the “feed intake (FI)” value ([1]; Day 0-28) was 2,212 g and the “food conversion ratio (FCR)” value ([1]; Day 0-28) was 1.472. For the same compound, the “body weight (BW)” value ([1]; Day 14-28) was 1,550 g, the “body weight gain (BWG)” value ([1]; Day 14-28) was 1,108 g and the “feed intake (FI)” value ([1]; Day 14-28) was 1,628 g. For the same compound, the “food conversion ratio (FCR)” value ([1]; Day 14-28) was 1.542, the “body weight (BW)” value ([1]; d 28-42) was 2,784 g and the “body weight gain (BWG)” value ([1]; d 28-42) was 1,235 g. For the same compound, the “feed intake (FI)” value ([1]; d 28-42) was 2,601 g, the “food conversion ratio (FCR)” value ([1]; d 28-42) was 2.123 and the “body weight (BW)” value ([1]; overall 0-42 days) was 2,784 g. The “body weight gain (BWG)” value ([1]; overall 0-42 days) was 2,745 g, the “feed intake (FI)” value ([1]; overall 0-42 days) was 4,813 g and the “food conversion ratio (FCR)” value ([1]; overall 0-42 days) was 1.753. For the same compound, the “Lactobacilli Counts” value (Lactobacilli) was 7.21 Log10 CFU/g.
